Six molecules from patent US10104893B2, “Pesticidally active polycyclic derivatives with sulfur substituted five membered ring heterocyles” (Syngenta Participations AG, priority 2015, dated 2018) can be followed below.

The subject of series [1] is Diabrotica balteata (Corn Root Worm). Briefly: Insecticidal action against Diabrotica balteata. Conditions: 96 h, read-out: effect in at least one of the two categories (mortality or growth inhibition); for percent effect (mortality or growth inhibition) at 200 ppm: application rate of 200 ppm, maize sprouts, L2 larvae, 4 days after infestation. The format is in vivo. As to the method:
Example B2: Insecticidal Action Against Diabrotica balteata (Corn Root Worm)
Maize sprouts placed onto an agar layer in 24-well microtiter plates were treated with aqueous test solutions prepared from 10′000 ppm DMSO stock solutions by spraying. After drying, the plates were infested with L2 larvae (6 to 10 per well). The samples were assessed for mortality and growth inhibition in comparison to untreated samples 4 days after infestation.

The subject of series [2] is Plutella xylostella (Diamond Back Moth). Briefly: Insecticidal action against Plutella xylostella. It is filed as in vivo. Particulars: 120 h, read-out: effect in at least one of the two categories (mortality or growth inhibition); for percent effect (mortality or growth inhibition) at 200 ppm: application rate of 200 ppm, artificial diet, L2 larvae, 5 days after infestation. The method, then:
Example B7: Insecticidal Action Against Plutella xylostella (Diamond Back Moth)
24-well microtiter plates with artificial diet were treated with aqueous test solutions prepared from 10′000 ppm DMSO stock solutions by pipetting. After drying, the plates were infested with L2 larvae (10 to 15 per well). The samples were assessed for mortality and growth inhibition in comparison to untreated samples 5 days after infestation.

In series [3] the test system is Myzus persicae (Green Peach Aphid). Briefly: Insecticidal action against Myzus persicae: feeding/contact activity. Conditions: foliar, 144 h. It is filed as in vivo. The method, then:
Example B4: Insecticidal Action Against Myzus persicae (Green Peach Aphid): Feeding/Contact Activity
Sunflower leaf discs were placed onto agar in a 24-well microtiter plate and sprayed with aqueous test solutions prepared from 10′000 ppm DMSO stock solutions. After drying, the leaf discs were infested with an aphid population of mixed ages. The samples were assessed for mortality 6 days after infestation.

Series [4] deals with Spodoptera littoralis (Egyptian Cotton Leaf Worm). Briefly: Insecticidal action against Spodoptera littoralis, sprayed cotton leaf discs. It is filed as in vivo. Conditions: foliar, 72 h, read-out: control (mortality, anti-feeding effect, growth inhibition). The method, then: Example B8: Insecticidal Action Against Spodoptera littoralis (Egyptian Cotton Leaf Worm)
Cotton leaf discs were placed onto agar in 24-well microtiter plates and sprayed with aqueous test solutions prepared from 10′000 ppm DMSO stock solutions. After drying the leaf discs were infested with five L1 larvae. The samples were assessed for mortality, anti-feeding effect, and growth inhibition in comparison to untreated samples 3 days after infestation. Control of Spodoptera littoralis by a test sample is given when at least one of the categories mortality, anti-feeding effect, and growth inhibition is higher than the untreated sample.

In series [5] the test system is Euschistus heros (Neotropical Brown Stink Bug). Briefly: Insecticidal action against Euschistus heros. Conditions: 120 h, read-out: effect in at least one of the two categories (mortality or growth inhibition); for percent effect (mortality or growth inhibition) at 200 ppm: application rate of 200 ppm, soybean leaves, N2 nymphs, 5 days after infestation. The format is in vivo. As to the method:
Example B3: Insecticidal Action Against Euschistus heros (Neotropical Brown Stink Bug)
Soybean leaves on agar in 24-well microtiter plates were sprayed with aqueous test solutions prepared from 10′000 ppm DMSO stock solutions. After drying the leaves were infested with N2 nymphs. The samples were assessed for mortality and growth inhibition in comparison to untreated samples 5 days after infestation.

The mark [6] stands for this setting: application rate of 200 ppm, cotton leaf discs, L1 larvae, 3 days after infestation.

Like-named read-outs stand apart in the source and are kept apart here.

As usually defined, the melting point is the temperature of the solid-liquid transition. `CCn1c(C(F)(F)F)cc2nc(-c3sc(-c4cccc(F)c4)cc3S(=O)(=O)CC)n(C)c2c1=O` displayed a melting point of 194 to 195 °C.

Turning to `CCn1c(C(F)(F)F)cc2nc(-c3sc(-c4cc(F)cc(F)c4)cc3S(=O)(=O)CC)n(C)c2c1=O`, the melting point was 180 to 182 °C.

Take `CCSc1cc(-c2ccc(Cl)cc2)sc1-c1nc2cc(C(F)(F)F)n(CC)c(=O)c2n1C` [A1, 2-[5-(4-chlorophenyl)-3-ethylsulfanyl-2-thienyl]-5-ethyl-3-methyl-6-(trifluoromethyl)-3aH-imidazo[4,5-c]pyridin-4-one]: the percent effect (mortality or growth inhibition) at 200 ppm in series [1] and in series [2] was no less than 80% each time.

Broadly, the mortality is the percentage killed. Take `CCn1c(C(F)(F)F)cc2nc(-c3sc(-c4ccc(Cl)cc4)cc3S(=O)(=O)CC)n(C)c2c1=O` [A2, 2-[5-(4-chlorophenyl)-3-ethylsulfonyl-2-thienyl]-5-ethyl-3-methyl-6-(trifluoromethyl)-3aH-imidazo[4,5-c]pyridin-4-one]: the mortality at 200 ppm in series [3] and in series [4] was no less than 80% in each case. For the same molecule, the percent control (mortality or growth inhibition) at 200 ppm in series [1], in series [2] and in series [5] (in Glycine max) was no less than 80% throughout.

On to `CCS(=O)(=O)c1cc(I)sc1-c1nc2cc(C(F)(F)F)n(C)c(=O)c2n1C` [A44, 2-(3-ethylsulfonyl-5-iodo-2-thienyl)-3,5-dimethyl-6-(trifluoromethyl)imidazo[4,5-c]pyridin-4-one], for which the percent effect (mortality or growth inhibition) at 200 ppm in series [1], in series [2] and in series [5] was no less than 80% in each case. In addition, in series [4] (setting [6]), the mortality at 200 ppm is no less than 80%.

On to `CCS(=O)(=O)c1sc(-c2ccc(Cl)cc2)nc1-c1nc2cc(C(F)(F)F)n(C)c(=O)c2n1C` [A48, 2-[2-(4-chlorophenyl)-5-ethylsulfonyl-thiazol-4-yl]-3,5-dimethyl-6-(trifluoromethyl)imidazo[4,5-c]pyridin-4-one], for which the percent effect (mortality or growth inhibition) at 200 ppm in series [1], in series [2] and in series [5] was no less than 80% in each case. Moreover, in series [4] (setting [6]), the mortality at 200 ppm was no less than 80%.
